Columns and labels:
Assay type in all cases: cell-based
E. coli DH5α = test: Antibacterial activity: MIC and growth curve against E. coli DH5α in 96-well plate; conditions: minimal inhibitory concentration against E. coli DH5α; 96-well plate, 5×10^5 CFU/mL, 37° C., judged after 8 h
Outline: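 MIC taken as lowest protein level with no bacterial growth, tracked by A600 every 30 min during 37 °C, 175 rpm culture. Two-fold protein series 50-12.5 μg/mL final, triplicate wells, against 5×10^5 CFU/mL of LB-washed mid-log cells.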

E. coli BL21 = test: MIC against Gram-negative bacteria: E. coli BL21; conditions: 5×10^5 CFU/mL; for MIC E. coli BL21: two-fold serial dilution
Outline: (§1)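 Growth inhibition by human EGF domain proteins was scored in LB liquid culture seeded at 5×10^5 CFU/mL. Protein was applied as a two-fold dilution series in triplicate, with shaking incubation at 37° C; MIC is the lowest concentration giving no growth.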

Enterobacter cloacae = test: MIC against Gram-negative bacteria: Enterobacter cloacae; conditions: 5×10^5 CFU/mL; for MIC E. cloacae: two-fold serial dilution
Outline: as §1

Serratia marcescens = test: MIC against Gram-negative bacteria: Serratia marcescens; conditions: 5×10^5 CFU/mL; for MIC S. marcescens: two-fold serial dilution
Outline: as §1

Klebsiella pneumonia = test: MIC against Gram-negative bacteria: Klebsiella pneumonia; conditions: 5×10^5 CFU/mL; for MIC K. pneumonia: two-fold serial dilution
Outline: as §1

Moraxella catarrhalis = test: MIC against Gram-negative bacteria: Moraxella catarrhalis; conditions: 5×10^5 CFU/mL; for MIC M. catarrhalis: two-fold serial dilution
Outline: as §1

Citrobacter diversus = test: MIC against Gram-negative bacteria: Citrobacter diversus; conditions: 5×10^5 CFU/mL; for MIC C. diversus: two-fold serial dilution
Outline: as §1

Proteus mirabilis = test: MIC against Gram-negative bacteria: Proteus mirabilis; conditions: 5×10^5 CFU/mL; for MIC P. mirabilis: two-fold serial dilution
Outline: as §1

Pseudomonas aeruginosa = test: MIC against Gram-negative bacteria: Pseudomonas aeruginosa; conditions: 5×10^5 CFU/mL; for MIC P. aeruginosa: two-fold serial dilution
Outline: as §1

Aeromonas hydrophila = test: MIC against Gram-negative bacteria: Aeromonas hydrophila; conditions: 5×10^5 CFU/mL; for MIC A. hydrophila: two-fold serial dilution
Outline: as §1

Proteus vulgaris = test: MIC against Gram-negative bacteria: Proteus vulgaris; conditions: 5×10^5 CFU/mL; for MIC P. vulgaris: two-fold serial dilution
Outline: as §1

[1] = E. cloacae, 10 h cultivation at 37° C.
[2] = S. marcescens, 10 h cultivation at 37° C.
[3] = K. pneumonia, 10 h cultivation at 37° C.
[4] = M. catarrhalis, 10 h cultivation at 37° C.
[5] = C. diversus, 10 h cultivation at 37° C.
[6] = P. mirabilis, 10 h cultivation at 37° C.
[7] = P. aeruginosa, 10 h cultivation at 37° C.
[8] = A. hydrophila, 10 h cultivation at 37° C.
[9] = P. vulgaris, 10 h cultivation at 37° C.

Row | Substance | MIC (E. coli DH5α) [µg/mL] | MIC E. coli BL21 (E. coli BL21; 10 h cultivation at 37° C.) [µg/mL] | MIC E. cloacae (Enterobacter cloacae; 10 h cultivation at 37° C.) [µg/mL] | MIC S. marcescens (Serratia marcescens; 10 h cultivation at 37° C.) [µg/mL] | MIC K. pneumonia (Klebsiella pneumonia; 10 h cultivation at 37° C.) [µg/mL] | MIC M. catarrhalis (Moraxella catarrhalis; 10 h cultivation at 37° C.) [µg/mL] | MIC C. diversus (Citrobacter diversus; 10 h cultivation at 37° C.) [µg/mL] | MIC P. mirabilis (Proteus mirabilis; 10 h cultivation at 37° C.) [µg/mL] | MIC P. aeruginosa (Pseudomonas aeruginosa; 10 h cultivation at 37° C.) [µg/mL] | MIC A. hydrophila (Aeromonas hydrophila; 10 h cultivation at 37° C.) [µg/mL] | MIC (μg/mL) E. coli BL21 (E. coli BL21; 10 h cultivation at 37° C.) [µg/mL] | MIC (μg/mL) E. cloacae (Enterobacter cloacae; [1]) [µg/mL] | MIC (μg/mL) S. marcescens (Serratia marcescens; [2]) [µg/mL] | MIC (μg/mL) K. pneumonia (Klebsiella pneumonia; [3]) [µg/mL] | MIC (μg/mL) M. catarrhalis (Moraxella catarrhalis; [4]) [µg/mL] | MIC (μg/mL) C. diversus (Citrobacter diversus; [5]) [µg/mL] | MIC (μg/mL) P. mirabilis (Proteus mirabilis; [6]) [µg/mL] | MIC (μg/mL) P. aeruginosa (Pseudomonas aeruginosa; [7]) [µg/mL] | MIC (μg/mL) A. hydrophila (Aeromonas hydrophila; [8]) [µg/mL] | MIC (μg/mL) P. vulgaris (Proteus vulgaris; [9]) [µg/mL] | other results
1 | PRT1109 (EPRGCATQPCHHGALCVPQGPDPTGFRCYCVPGFQGPRCE; listed as Homo sapiens) | 12.5 | 25 | 12.5 | 12.5 | 25 | 25 | 12.5 | 50 | 12.5 | 50 | – | – | – | – | – | – | – | – | – | – | MIC P. vulgaris (Proteus vulgaris; 10 h cultivation at 37° C.): 25 µg/mL
2 | PRT89 (TNGQCHCKEFHYRPRGSDSCLPCDCYPVGSTSRSCA; listed as Homo sapiens) | 25 | – | – | – | – | – | – | – | – | – | – | – | – | – | – | – | – | – | – | – | MIC (μg/mL) E. coli BL21 (E. coli BL21; 96-well plate, 37° C., 10 h): 50 µg/mL; MIC (μg/mL) E. cloacae (Enterobacter cloacae; Enterobacter cloacae, 96-well plate, 37° C., 10 h): 25 µg/mL; MIC (μg/mL) S. marcescens (Serratia marcescens; Serratia marcescens, 96-well plate, 37° C., 10 h): 12.5 µg/mL; MIC (μg/mL) K. pneumonia (Klebsiella pneumonia; Klebsiella pneumonia, 96-well plate, 37° C., 10 h): 12.5 µg/mL; MIC (μg/mL) M. catarrhalis (Moraxella catarrhalis; Moraxella catarrhalis, 96-well plate, 37° C., 10 h): 12.5 µg/mL; MIC (μg/mL) C. diversus (Citrobacter diversus; Citrobacter diversus, 96-well plate, 37° C., 10 h): 25 µg/mL; MIC (μg/mL) P. mirabilis (Proteus mirabilis; Proteus mirabilis, 96-well plate, 37° C., 10 h): 25 µg/mL; MIC (μg/mL) P. aeruginosa (Pseudomonas aeruginosa; Pseudomonas aeruginosa, 96-well plate, 37° C., 10 h): 12.5 µg/mL; MIC (μg/mL) A. hydrophila (Aeromonas hydrophila; Aeromonas hydrophila, 96-well plate, 37° C., 10 h): 50 µg/mL; MIC (μg/mL) P. vulgaris (Proteus vulgaris; Proteus vulgaris, 96-well plate, 37° C., 10 h): 50 µg/mL
3 | PRT240 (NINECEVEPCKNGGICTDLVANYSCECPGEFMGRNCQ; listed as Homo sapiens) | 25 | – | – | – | – | – | – | – | – | – | 12.5 | 25 | 12.5 | 12.5 | 12.5 | 25 | 100 | 25 | 12.5 | 100 | –
4 | PRT757 (RINYCALNKPGCEHECVNMEESYYCRCHRGYTLDPNGKTCS; listed as Homo sapiens) | 50 | – | – | – | – | – | – | – | – | – | 12.5 | 25 | 50 | 12.5 | 50 | 12.5 | 12.5 | 50 | 50 | 25 | –
5 | PRT1091 (DVNECSSNPCQNGGTCENLPGNYTCHCPFDNLSRTFYGGRDCS; listed as Homo sapiens) | 12.5 | 50 | 50 | 12.5 | 25 | 25 | 12.5 | 50 | 12.5 | 25 | – | – | – | – | – | – | – | – | – | – | MIC P. vulgaris (Proteus vulgaris; 10 h cultivation at 37° C.): 25 µg/mL
6 | PRT823 (FGEACAQRCSCPPGAACHHVTGACRCPPGFTGSGCE; listed as Homo sapiens) | 25 | – | – | – | – | – | – | – | – | – | 12.5 | 25 | 50 | 12.5 | 50 | 25 | 25 | 25 | 12.5 | 12.5 | –
